Here are results for 5 molecules from EP4813979A1, “COMPOUND FOR EGFR PROTEIN DEGRADATION AND USE THEREOF” (TYK Medicines, Inc., priority 2023, dated 2025).

A short description of series [1]: Pharmacokinetic tests in male SD rats. Format: in vivo. As to conditions: oral gavage (po), 10 mg/kg, plasma; for AUC(0-inf) / AUC(0-t) / Cmax / MRT last / Tmax: rat. A digest of the protocol: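 Fasted male SD rats (n=3) dosed 10 mg/kg by oral gavage as 1 mg/mL solution in 10% DMSO/90% 0.5% MC. Tail-vein EDTA plasma sampled 0.5–24 h, parent drug quantified by LC-MS/MS; AUC, T1/2, Cmax, Tmax by non-compartmental analysis.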

Series [2] can be described thus: Pharmacokinetic test of CD-1 mice. Format: in vivo. Details: AUC(0-t) / AUC(0-inf): concentration or dose not given beside the values. As to conditions: male CD-1 mice, single oral gavage (PO), plasma. Here is the method:
Plasma was collected from male CD-1 mice after a single gavage administration of the test substance. The plasma was then analyzed to calculate pharmacokinetic parameters.
The solvent is 5% DMSO + 10% Solutol HS-15 + 85% Saline.
Formulation preparation process: Accurately weighed the compound powder, added appropriate volumes of DMSO, Solutol and physiological saline in sequence, and vortexed sonicate at each step to finally form a homogeneous formulation solution.
Experimental animals were housed in the SPF-grade animal facility of Suzhou Xihua New Drug Development Co., Ltd. (License No.: SYXK(Su)2021-0019). Animals were fed normally for at least 3 days after purchase before the experiment, and each mouse was marked with a tail tag. Animals in the oral administration group were fasted overnight the day before administration, and were resumed feeding 4 hours later, with free access to water. Table 4. Sources and Number of Experimental Animals […]
Before administration, checked the state of the administration formulation and ensured its homogeneity by vortexing, stirring or shaking. Calculated the theoretical administration volume for each CD-1 mouse in each group according to the following formula. Theoretical administration volume (mL); = (Dose (mg⋅kg^−1))/(formulation concentration (mg⋅mL^−1)) × animal body weight (kg) [formula]
Table 5 Sample Collection Information
The collected blood was placed in test tubes containing the anticoagulant EDTA-K2 (15 % EDTA-K2 solution), stored on moist ice, and centrifuged within 45 min (1,500 g, 2-8 °C, 10 min). Plasma was then collected. The plasma was stored in pre-chilled centrifuge tubes, flash-frozen on dry ice, and subsequently stored in an ultra-low temperature freezer at -60 °C or lower until shipment.
A quantitative detection method for the analyte was established using Shimadzu liquid chromatography and Triple Quad™ 6500+AB mass spectrometry. The concentration of the parent drug in plasma was analyzed. The analytical results were controlled for variation using quality control samples, with the accuracy of the quality control samples expected to be between 80% and 120%.
The main pharmacokinetic parameters were calculated using a non-compartmental model in Winnonlin Phoenix software. These parameters included the area under the curve (AUC(0-t) and AUC(0-∞)), elimination half-life (T1/2), maximum plasma concentration (Cmax ), and time to reach maximum plasma concentration (Tmax).

The AUC(0-inf) is total exposure, with the tail of the curve extrapolated. As a reminder, the AUC(0-t) is exposure summed from dosing to a finite time, without extrapolation to infinity. The Cmax is the maximum level reached in the sampled fluid or tissue. What is called MRT last is the average time that molecules of a dose stay in the body. A word on the Tmax: it is the time from dosing to the highest level. In series [1], `COc1cc(N2CCC(CN3CCN(c4ccc5c(c4)C(=O)N(C4CCC(=O)NC4=O)C5=O)CC3)CC2)c(-c2cnn(C)c2)cc1Nc1ncc(Br)c(Nc2ccc(C3CC3)cc2P(C)(C)=O)n1` (stereo not drawn) [DZL-1, reference compound] returned an HL of 3.08 h, an AUC(0-inf) of 8460 ng·h/mL, an AUC(0-t) of 8070 ng·h/mL and a Cmax of 699 ng/mL. Also, in series [1], the MRT last worked out at 6.11 h and the Tmax was found to be 4 h.
In turn, `CCc1cc(Nc2ncc(Cl)c(Nc3ccccc3C(=O)NC)n2)c(OC)cc1N1CCN(C(=O)CN2CCC(c3cc4c(cc3F)c(N3CCC(=O)NC3=O)nn4C)C(F)(F)C2)CC1` (stereo not drawn) [TA-003] gave an HL_ in series [2] of 2.45 h. In series [2] (mouse), this molecule returned an AUC(0-inf) of 20700 ng·h/mL, an AUC(0-t) of 20600 ng·h/mL, a Cmax of 3410 ng/mL and an MRT last of 5.11 h. In addition, in series [2] (mouse), the Tmax is 4 h. Further, in series [1], the HL is given as 3.22 h, the AUC(0-inf) was determined as 3800 ng·h/mL, the AUC(0-t) was 3770 ng·h/mL and the Cmax stood at 441 ng/mL. Moreover, in series [1], the MRT last was determined as 5.63 h and the Tmax came out at 2 h.
For `CCc1cc(Nc2ncc(Cl)c(Nc3ccccc3P(C)(C)=O)n2)c(OC)cc1N1CC2(CCN(C(=O)CN3CCC(c4cc5c(cc4F)c(N4CCC(=O)NC4=O)nn5C)C(F)(F)C3)CC2)C1` (stereo not drawn) [TA-023], in series [1], the HL is on record as 3.99 h, the AUC(0-inf) was determined as 3980 ng·h/mL, the AUC(0-t) was found to be 3920 ng·h/mL and the Cmax is 580 ng/mL. Besides, in series [1], the MRT last was 5.1 h and the Tmax is 2 h.
In series [1], `CCc1cc(Nc2ncc(Cl)c(Nc3ccccc3P(C)(C)=O)n2)c(OC)cc1N1CCN(C(=O)CN2CCC(c3cc4c(cc3F)c(N3CCC(=O)NC3=O)nn4C)C(F)(F)C2)CC1` (stereo not drawn) [TC-157] had an HL of 2.66 h, an AUC(0-inf) of 5800 ng·h/mL, an AUC(0-t) of 7530 ng·h/mL and a Cmax of 768 ng/mL. In series [1], the MRT last amounted to 5.52 h and the time of peak concentration (Tmax) turned out to be 3.33 h.
In the case of `CCc1cc(Nc2ncc(Cl)c(Nc3ccccc3P(C)(C)=O)n2)c(OC)cc1N1CCN(C(=O)CN2CCC(c3cc4c(cc3F)c(N3CCC(=O)NC3=O)nn4C)CC2)CC1` [TC-213], in series [1], the HL was 3.48 h, the AUC(0-inf) was 8150 ng·h/mL, the AUC(0-t) worked out at 8070 ng·h/mL and the highest level (Cmax) was 742 ng/mL. Further, in series [1], the MRT last was found to be 6.22 h and the Tmax worked out at 4 h.
